Experimental data reported in patent publication US9945863B2, “Coiled coil helix cristae morphology 1 (CHCM1) tumor marker and cancer therapeutic target” (The Research Foundation of State University of New York, priority 2012, dated 2018).

Experiments:
CHCM1/CHCHD6 mRNA [1] = assay: Northern blot of CHCM1/CHCHD6 mRNA after genotoxic drug treatment; assay type: cell-based, human
Protocol: (§1) Northern blot analyses were done according to standard procedure (23, 24). Briefly, total RNA was extracted by Trizol reagent (Invitrogen, Carlsbad, Calif.) and ˜15 μg of total RNA were size-separated on 1.2% agarose gel and transferred to nylon membrane (Whatman, GE Health care, Piscataway, N.J.). Human CHCM1/CHCHD6 cDNA probe was labeled with ^32P and hybridization was performed in QuikHyb solution (Stratagene, La Jolla, Calif.) at 65° C.

[2] = tested on: CHCM1/CHCHD6 protein levels; assay: Western blot of CHCM1/CHCHD6 protein levels after drug treatment; assay type: cell-based, human
Protocol: (§2) Western blotting and immunoprecipitations were done by standard procedures as previously described (25, 26). S-tag pull down experiments were performed using human cancer cells as well as bacterial lysates. Cell pellets were prepared and lysed in lysis buffer (50 mM Tris-HCl, pH 7.4, 120 mM NaCl, 0.1% NP-40, 10 mM NaF, 5 mM EDTA, 2 mM Na3VO4, 2 mM MgCl2, 10 mM KCl, 25 mM glycerophosphate, protease inhibitor cocktail, okadic acid and 1 mM PMSF) and S-tag pull down was performed by using S-protein agarose beads (Novagen, EMD Chemicals Group, Darmstadt, Germany) according to manufacturer's protocol. For S-tag pull down using bacterial lysates, wild type and deletion variants of S-tagged CHCM1/CHCHD6 were expressed in E. coli BL21 (DE3) and induced by 1 mM IPTG (isopropyl-1-thio-β-D-galactopyranoside) at 30° C. for 6 hr. Bacteria were lysed in a buffer containing 28 mM Tris, 135 mM NaCl, 1 mM dithiothreitol (DTT), 1% Triton-X 100 (w/v), protease inhibitor cocktail and 400 μg/ml […] for 30 min at room temperature, followed by 26,000×g centrifugation for 30 min (Sorvall RC5C Plus) and S-tag pull down was done according to manufacturer's protocol. GST-tagged Mitofilin was expressed in bacteria and gel-purified as previously described (27).

[3] = tested on: MDA231 and SK-Mel-103 cells; assay: MTT assay, chemosensitivity of CHCM1/CHCHD6 knockdown cells; assay type: cell-based, human; settings: Adria 3 μM for MDA231, 1 μM for SK-Mel-103, 24 hr; knockdown vs scramble (FIG. 6A)
Text: (§3) Endogenous CHCM1/CHCHD6 and Mitofilin were knocked-down by lentiviral shRNA-mediated approach (28). The pLKO.1 lentiviral vectors containing the scrambled or CHCM1/CHCHD6-specific shRNAs or Mitofilin-specific shRNAs were generated by The RNA interference Consortium and purchased from Open Biosystems (Huntsville, Ala.). Lentiviruses were produced and titered according to the supplier's protocols. In all experiments, the multiplicity of infection (M.O.I.) was 1.0. Five shRNAs to target five different regions of CHCM1/CHCHD6 were used. Artificial DNA sequences coding for shRNAs are as follows. The first part of the sequence is in sense orientation then loop (underlined) followed by antisense sequence:
(§4) MTT powder (MTT, Methylthiazolyldiphenyl-tetrazolium bromide, available from Sigma-Aldrich, St. Louis, Mo., Cat. No. M2128) was dissolved in DMEM without fetal bovine serum and phenol red to a final concentration of 1 mg/ml and then added to cells and incubated for ˜1-4 hrs depending on cell confluency. Medium was then removed and equal volume of isopropanol with 0.04N HCl was added to dissolve the precipitate. Finally, absorbance was read at 570 nm wavelength subtracting background reading at 650 nm wavelength with a Bio-Rad Smart-Spec 3100 instrument.

[4] = tested on: RKO cells stably expressing exogenous CHCM1/CHCHD6; assay: MTT assay, chemosensitivity of cells stably overexpressing CHCM1/CHCHD6; assay type: cell-based, human; settings: etoposide 30 μM for 48 hr; clones C3 and C4 vs vector (FIG. 6B)
Text: For stable transfections, expression vector pcDNA3.1 carrying HA/S-tagged CHCM1/CHCHD6 was used. The same vector without CHCM1/CHCHD6 insert was used for control transfection. RKO human colon cancer cells were transfected with these vectors using Lipofectamine 2000 (Invitrogen, Carlsbad, Calif.) and G418-resisitant colonies selected after approximately 2 weeks. Several independent colonies were picked up and expanded into mass culture and screened for the expression of exogenous CHCM1/CHCHD6. Several vector-only transfected colonies were also isolated, pooled and expanded into mass culture. CHCM1/CHCHD6 expressing clones B4, C3 and C4 were selected for further studies.
as §4

CHCM1/CHCHD6 mRNA [5] = assay: Lentiviral shRNA knockdown of endogenous CHCM1/CHCHD6 (Northern and Western blot); assay type: cell-based; settings: RKO human colon and MCF-7 breast cancer cells; M.O.I. 1.0 (FIG. 5A)
Protocol: as §1, §2
as §3, with “sequence: […]” for “sequence:”

[6] = tested on: RKO, MCF7 and MDA231 cell lines; assay: MTT assay, cell growth in CHCM1/CHCHD6 knockdown cells; assay type: cell-based, human; settings: knockdown vs scramble, MCF7, MDA231 (FIG. 5B)
Text: as §3, §4

melanoma cells = assay: MTT assay, cell growth in CHCM1 knockdown melanoma cells; assay type: cell-based, human; settings: knockdown vs scramble; melanoma cells (FIG. 24)
Text: as §3, §4

RKO cells [7] = assay: Transmission electron microscopy of mitochondrial cristae, RKO; assay type: cell-based, human; settings: CHCM1/CHCHD6 knockdown
Text: as §3
Scramble and CHCM1/CHCHD6 knockdown cells were harvested and fixed by Ito and Karnovsky's fixative (2.5% glutaraldehyde, 2% paraformaldehyde in 0.1 M cacodylate buffer, pH 7.4) at 4° C. overnight (29). The next day cells were rinsed with 0.1 M cacodylate buffer for 5 times, 5 min each. After fixing with 1% osmium tetroxide in 0.1 M cacodylate buffer for 1 hr on ice, the samples were rinsed with double-distilled H2O for 3 times, 8 min each and later fixed with 1% Tannic acid for 1 hr. After rinsing with double-distilled H2O for additional 3 times 8 min each, samples were dehydrated and embedded into Poly/Bed® 812 according to the protocol of Poly/Bed® 812 BDMA Mini-kit (Polyscience, Inc., Warrington, Pa.). Poly/Bed®-embedded cells were cut into 80-90 nm ultrathin serial sections by a diamond knife-DIATOME 45 degree (Diatome U S, Hatfield, Pa.). Sections were supported on nickel grids/200 mesh (Electron Microscopy Sciences, Hatfield, Pa.) and post-stained in 4% uranyl acetate and 4% lead citrate. Finally sections were observed under Tecnai™ Transmission Electron Microscope (BioTwin lens) with Advantage Plus CCD Camera System at an 80.0-kV acceleration voltage.

MCF7 cells = assay: Transmission electron microscopy of mitochondrial cristae, MCF7; assay type: cell-based, human; settings: CHCM1/CHCHD6 knockdown
Text: as §3
Scramble and CHCM1/CHCHD6 knockdown cells were harvested and fixed by Ito and Karnovsky's fixative (2.5% glutaraldehyde, 2% paraformaldehyde in 0.1 M cacodylate buffer, pH 7.4) at 4° C. overnight (29). The next day cells were rinsed with 0.1 M cacodylate buffer for 5 times, 5 min each. After fixing with 1% osmium tetroxide in 0.1 M cacodylate buffer for 1 hr on ice, the samples were rinsed with double-distilled H2O for 3 times, 8 min each and later fixed with 1% Tannic acid for 1 hr. […]

RKO cells [8] = assay: Mitochondrial ATP synthesis assay (luciferase-based); assay type: cell-based, human; settings: RKO knockdown vs scramble cells; p<0.05 (FIG. 11A)
Protocol: Mitochondrial ATP synthesis assay was performed as reported previously (30). Briefly, CHCM1/CHCHD6 knockdown or scramble knockdown RKO cells were harvested, washed with glucose-free, serum free DMEM. Each sample with approximately 1.5×10^6 cells were re-suspended and incubated in 160 μl of buffer A (150 mM KCl, 25 mM Tris-HCl, 2 mM EDTA, 0.1% BSA, 10 mM potassium phosphate, pH 7.4, 0.1 mM MgCl2) with digitonin (40 μg/ml final concentration) for 1 min at room temperature. After a wash with buffer A, cells were centrifuged at 800×g at room temperature and pellets were re-suspended in 160 μl buffer A containing P^1, P^5-di (adenosine) pentaphosphate (0.15 mM). Subsequently, 10 μl of buffer B (0.5 M Tris-acetate, pH 7.75, 0.8 mM luciferin, 20 μg/ml luciferase), ADP (to 0.1 mM), malate and pyruvate (both to 1 mM) were added to the cell suspension. Oligomycin (1 μg/ml) was also added to one replicate of each sample prepared as above. Cells were transferred to a luminometer glass tubes and gently mixed with a vortex for 2 sec. Tubes were then placed in a luminometer (LUMAT LB 9507, Berthold Technologies, Germany) and light emission was recorded in the kinetic mode. The integration time for each reading was 1 sec. Interval between readings was 15 sec and a total recording time was 4 min. Finally, total cellular protein content of each sample was determined.

RKO cells [9] = assay: Oxygen consumption rate measurement; assay type: cell-based, human; settings: RKO knockdown vs scramble cells; p<0.05 (FIG. 11B)
Protocol: Intact cell oxygen consumption rate was measured by an Oxygraph system with DW1 Oxygen Electrode (Hansatech Instruments Ltd., Norfolk, U. K.) as described previously (30). Briefly, RKO cells with CHCM1/CHCHD6 knockdown or scramble knockdown were harvested by trypsinization and centrifugation at 2500 rpm. Approximately 1.5×10^6 cells were re-suspended in 300 μl growth medium for each sample and injected into the polarographic chamber for the intact cell-coupled oxygen consumption rate.

[10] = RKO human colon cancer cells, ADRIAMYCIN 0.5 μM (FIG. 4B)
[11] = multiple human cancer cell lines, etoposide 30 μM, ADRIAMYCIN 1.0 μM, 24 hr (FIG. 4C)
[12] = various human breast cancer cell lines (FIG. 23)
[13] = RKO cells, respiratory chain inhibitors, 24 hr or antimycin A 1 μg/ml, rotenone 0.1 μg/ml for various time points (FIGS. 12A-B)

In the case of `COc1cccc2c1C(=O)c1c(O)c3c(c(O)c1C2=O)C[C@@](O)(C(=O)CO)C[C@@H]3O[C@H]1C[C@H](N)[C@H](O)[C@H](C)O1` [ADRIAMYCIN®, doxorubicin], the “time by which CHCM1/CHCHD6 mRNA expression was reduced” value (CHCM1/CHCHD6 mRNA [1]; [10]) is reported as ≤ 12 h, the “time post-treatment until which mRNA down-regulation was maintained” value (CHCM1/CHCHD6 mRNA [1]; [10]) is reported as 60 h and the CHCM1/CHCHD6 protein levels [2, 11] is reported as “down-regulated”. The CHCM1 protein level [2, 12] was “down-regulate” and the “drug-mediated chemosensitivity in CHCM1/CHCHD6 knockdown cells (cell viability, MTT)” value [3] was “further increased”.
For `N.N.[Cl][Pt][Cl]` [Cisplatin], the CHCM1 protein level ([2]; UACC-62 melanoma cells, 24 hrs (FIG. 22)) was “downregulates”.
`COc1cc([C@@H]2c3cc4c(cc3[C@@H](O[C@@H]3O[C@@H]5CO[C@@H](C)O[C@H]5[C@H](O)[C@H]3O)[C@H]3COC(=O)[C@H]23)OCO4)cc(OC)c1O` [etoposide] was tested, and the “CHCM1/CHCHD6 mRNA expression” value (CHCM1/CHCHD6 mRNA [1]; multiple human cancer cell lines, etoposide 30 μM for 24 hr, Northern blot (FIG. 4A)) was “strongly down-regulated”, the CHCM1/CHCHD6 protein levels [2, 11] was “down-regulated” and the CHCM1 protein level [2, 12] was “down-regulate”. The “drug-mediated chemosensitivity in CHCM1/CHCHD6 knockdown cells (cell viability, MTT)” value [3] was “further increased” and the “etoposide-mediated chemosensitivity in cells overexpressing CHCM1/CHCHD6 (cell viability, MTT)” value [4] was “reduced”.
For `C=C(C)[C@H]1Cc2c(ccc3c2O[C@@H]2COc4cc(OC)c(OC)cc4[C@@H]2C3=O)O1` [rotenone], the CHCM1/CHCHD6 protein levels [2, 13] was “did not appreciably affect”.
In the case of “G4: lentiviral pLKO.1 CHCM1/CHCHD6-specific shRNA, SEQ ID NO: 3 (GAGCGTATTGAGAGGAAGAATCTCGAGATTCTTCCTCTCAATACGCTCT)”, the “knockdown of endogenous CHCM1/CHCHD6 at mRNA and protein levels” value (“knockdown of endogenous CHCM1/CHCHD6” for short) (CHCM1/CHCHD6 mRNA [5]) is reported as “effectively knocked down”, the “cell growth (MTT)” value [6] is reported as “reduces cell growth” and the “cell growth (MTT)” value (melanoma cells) is reported as “growth inhibition”. The “Abnormal Mitochondria devoid or nearly devoid of cristae structures, Experiment 1” value (RKO cells [7]) was 17.8%, the “Abnormal Mitochondria devoid or nearly devoid of cristae structures, Experiment 1” value (MCF7 cells) was 58.3% and the “cellular ATP production” value (RKO cells [8]) was “affects cellular ATP production”. For the same compound, the oxygen consumption rate (RKO cells [9]) was “affects oxygen consumption rate”.
With “G5: lentiviral pLKO.1 CHCM1/CHCHD6-specific shRNA, SEQ ID NO: 4 (CCTGAAGAAGGGACCAATCATCTCGAGATGATTGGTCCCTTCTTCAGGT)” the “knockdown of endogenous CHCM1/CHCHD6” value (CHCM1/CHCHD6 mRNA [5]) was “effectively knocked down”.
“G6: lentiviral pLKO.1 CHCM1/CHCHD6-specific shRNA, SEQ ID NO: 5 (GCATGCTGCTATCCAGGATAACTCGAGTTATCCTGGATAGCAGCATGCT)” was tested, and the “knockdown of endogenous CHCM1/CHCHD6” value (CHCM1/CHCHD6 mRNA [5]) was “effectively knocked down”.
With “G7: lentiviral pLKO.1 CHCM1/CHCHD6-specific shRNA, SEQ ID NO: 6 (CTTTGGCCTTCAAGATGGCAACTCGAGTTGCCATCTTGAAGGCCAAAGT)” the “knockdown of endogenous CHCM1/CHCHD6” value (CHCM1/CHCHD6 mRNA [5]) was “effectively knocked down”.
With “G8: lentiviral pLKO.1 CHCM1/CHCHD6-specific shRNA, SEQ ID NO: 7 (GCTGAGATGTATAAACTGTCTCTCGAGAGACAGTTTATACATCTCAGCT)” the “knockdown of endogenous CHCM1/CHCHD6” value (CHCM1/CHCHD6 mRNA [5]) was “effectively knocked down”, the “cell growth (MTT)” value [6] was “reduces cell growth” and the “cell growth (MTT)” value (melanoma cells) was “growth inhibition”. For the same compound, the “Abnormal Mitochondria devoid or nearly devoid of cristae structures, Experiment 1” value (RKO cells [7]) was 55.6%, the “Abnormal Mitochondria devoid or nearly devoid of cristae structures, Experiment 2” value (RKO cells [7]) was 70.5% (74/105) and the “Abnormal Mitochondria devoid or nearly devoid of cristae structures, Experiment 1” value (MCF7 cells) was 65.2%. For the same compound, the “cellular ATP production” value (RKO cells [8]) was “affects cellular ATP production” and the oxygen consumption rate (RKO cells [9]) was “affects oxygen consumption rate”.
With antimycin A the CHCM1/CHCHD6 protein levels [2, 13] was “did not appreciably affect”.
